Measured values taken from US20210255193A1, “LYSINE REACTIVE PROBES AND USES THEREOF” (The Scripps Research Institute, priority 2017, published 2021).

Test system: soluble proteome of the human breast cancer cell line MDA-MB-231
Test: isoTOP-ABPP, residues labeled by probe 1
Type: binding
Procedure: STP-alkyne labeling and click chemistry. For concentration-dependent reactivity measurements by isoTOP-ABPP, 0.5 ml proteome aliquots were treated at ambient temperature with 1 mM STP-alkyne 1 (5 μl of 100 mM stock in DMSO) and 0.1 mM STP alkyne 1 (5 μl of 10 mM stock in DMSO), respectively. For competitive isoTOP-ABPP, after in vitro fragment treatment (detailed above), the samples were labeled for 1 h at ambient temperature with 0.1 mM STP-alkyne 1 (5 μl of 10 mM stock in DMSO). Samples were conjugated by copper-mediated azide-alkyne cycloaddition (CuAAC) to either the light (1 mM STP-alkyne or fragment treated) or heavy (0.1 mM STP-alkyne or DMSO treated) TEV tags (10 μl of 5 mM stocks in DMSO, final concentration=100 μM) using tris(2-carboxyethyl)phosphine hydrochloride
Peptide and protein identification. The MS2 spectra were extracted from the raw file using RAW Xtractor. MS2 spectra were searched using the ProLuCID algorithm using a reverse concatenated, nonredundant variant of the Human UniProt database (release-2012_11). Cysteine residues were searched with a static modification for carboxyamidomethylation (+57.02146). For all competitive and reactivity profiling experiments, lysine residues were searched with up to one differential modification for either the light or heavy TEV tags (+464.2491 or +470.26331, respectively). Peptides were required to have at least one tryptic terminus and to contain the TEV modification. ProLuCID data was filtered through DTASelect (version 2.0) to achieve a peptide false-positive rate below 1%.
Differential labeling analysis of residues labeled by probe 1. For analysis of the residues labeled by probe 1, peptide and protein identification was conducted as detailed above with differential modification for either the light or heavy TEV tags (+464.2491 or +470.26331, respectively) allowed on lysine, arginine, aspartate, glutamate, histidine, serine, threonine, tyrosine, asparagine, glutamine and tryptophan. Cysteine was searched with a differential modification for either the light or heavy TEV tags (+413.24185 and +407.22764, respectively).
To assess the scope and selectivity with which 1 reacted with lysine residues in human cell proteomes, initial isoTOP-ABPP experiments were performed as follows. Two equal amounts of the soluble proteome of the human breast cancer cell line MDA-MB-231 (0.75 mg of protein per sample) were treated with 1 (100 μM, 1 h), and then conjugated by copper-catalyzed azide-alkyne cycloaddition (CuAAC) to isotopically differentiated TEV-cleavable, azide-biotin tags (heavy and light, respectively). The heavy and light-tagged samples were then combined, and 1-labeled proteins enriched by streptavidin and proteolytically digested sequentially with trypsin and TEV protease (to release 1-labeled tryptic peptides from the streptavidin support), furnishing isotopic (heavy/light) peptide pairs that were analyzed by multidimensional liquid chromatography-MS(LC/LC-MS/MS). Measurement of the MS1 chromatographic peak ratios for light/heavy peptide pairs provided an isoTOP-ABPP ratio or R value, which centered on about 1.0 for the more than 5000 probe 1-labeled peptides quantified in this initial study. […] Because lysine modification creates a missed trypsin cleavage site, the fractions of alternative amino-acid modification assignments were further assessed for their occurrence on peptides harboring a missed lysine cleavage site. […]

[1] = 1 100 μM, 1 h, pilot experiment

Structure (SMILES): C#CCCC(=O)Oc1c(F)c(F)c(S(=O)(=O)[O-])c(F)c1F.[Na+] [probe 1, reference compound]
- reactivity and selectivity for lysine residues in the human proteome (1 100 μM): broad reactivity and good selectivity for lysine residues
- probe 1-labeled peptides quantified (1 100 μM, 1 h): more than 5000
- 1-labeled peptides assigned as uniquely modified on lysine residues [1]: > 52%
- remaining 1-labeled peptides assigned with lysine modifications as well as alternative residue modifications [1]: 54%
- probe 1 modifications assigned to serine, of the total 1-labeled peptides (after filtering missed lysine cleavage events): about 8%
